Laboratory results reported in PubChem BioAssay AID2060903 (Molecular Pharmacology Branch, DTP, NCI, 2025).

System: 377384-186-R-J1-PDC complex spheroid viability
Experiment: Anticancer human tumor 377384-186-R-J1-PDC patient-derived pancreatic carcinoma cell line growth inhibition [RAS]
Settings: for IC50: curve of first compound; for viability, T/C: stronger effect = lower value; active = viability on the fitted dose curve at most 10% of control; inactive = the rest
Procedure, shortened: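 Multi-cell-type spheroids: tumor cells plus HUVEC endothelial cells and mesenchymal stem cells. RAS-pathway inhibitors were combined with targeted agents, each dosed in half-log steps down from clinical Cmax, or from 10 microM when Cmax was unknown.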

[1] = second compound 0.0316 µM, first compound 0.0316 µM
[2] = second compound 0.0316 µM, first compound 0.1 µM
[3] = second compound 0.0316 µM, first compound 0.316 µM
[4] = second compound 0.0316 µM, first compound 1 µM
[5] = second compound 0.0316 µM, first compound 3.16 µM
[6] = second compound 0.0316 µM, first compound 10 µM
[7] = second compound 0.1 µM, first compound 0.0316 µM
[8] = second compound 0.1 µM, first compound 0.1 µM
[9] = second compound 0.1 µM, first compound 0.316 µM
[10] = second compound 0.1 µM, first compound 1 µM
[11] = second compound 0.1 µM, first compound 3.16 µM
[12] = second compound 0.1 µM, first compound 10 µM
[13] = second compound 0.316 µM, first compound 0.0316 µM
[14] = second compound 0.316 µM, first compound 0.1 µM
[15] = second compound 0.316 µM, first compound 0.316 µM
[16] = second compound 0.316 µM, first compound 1 µM
[17] = second compound 0.316 µM, first compound 3.16 µM
[18] = second compound 0.316 µM, first compound 10 µM
[19] = second compound 1 µM, first compound 0.0316 µM
[20] = second compound 1 µM, first compound 0.1 µM
[21] = second compound 1 µM, first compound 0.316 µM
[22] = second compound 1 µM, first compound 1 µM
[23] = second compound 1 µM, first compound 3.16 µM
[24] = second compound 1 µM, first compound 10 µM
[25] = second compound 3.16 µM, first compound 0.0316 µM
[26] = second compound 3.16 µM, first compound 0.1 µM
[27] = second compound 3.16 µM, first compound 0.316 µM
[28] = second compound 3.16 µM, first compound 1 µM
[29] = second compound 3.16 µM, first compound 3.16 µM
[30] = second compound 3.16 µM, first compound 10 µM
[31] = second compound 10 µM, first compound 0.0316 µM
[32] = second compound 10 µM, first compound 0.1 µM
[33] = second compound 10 µM, first compound 0.316 µM
[34] = second compound 10 µM, first compound 1 µM
[35] = second compound 10 µM, first compound 3.16 µM
[36] = second compound 10 µM, first compound 10 µM
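Note: spheroids exposed to compounds for seven days before readout.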

CC1(O)CCCC1n1c(=O)c(C(F)F)cc2cnc(NC3CCN(S(C)(=O)=O)CC3)nc21 (stereo not drawn) + C#Cc1c(F)ccc2cc(O)cc(-c3ncc4c(N5CC6CCC(C5)N6)nc(OCC56CCCN5CC(F)C6)nc4c3F)c12
active: viability, T/C [6] 5.41% | viability, T/C [7] 8.93% | viability, T/C [8] 6.57% | viability, T/C [9] 6.54% | viability, T/C [10] 7.97% | viability, T/C [11] 9.01% | viability, T/C [12] 4.92% | viability, T/C [13] 5.04% | viability, T/C [14] 3.52% | viability, T/C [15] 3.71% | viability, T/C [16] 4.22% | viability, T/C [17] 6.59% | viability, T/C [18] 5.41% | viability, T/C [19] 2.55% | viability, T/C [20] 2.39% | viability, T/C [21] 2.88% | viability, T/C [22] 3.55% | viability, T/C [23] 4.3% | viability, T/C [24] 5.91% | viability, T/C [25] 2% | viability, T/C [26] 2.27% | viability, T/C [27] 3.01% | viability, T/C [28] 3.27% | viability, T/C [29] 3.34% | viability, T/C [30] 6.51% | viability, T/C [31] 1.76% | viability, T/C [32] 1.46% | viability, T/C [33] 1.91% | viability, T/C [34] 2% | viability, T/C [35] 1.28% | viability, T/C [36] 2.73%
inactive: viability, T/C [1] 15.5% | viability, T/C [2] 12.7% | viability, T/C [3] 10% | viability, T/C [4] 11.7% | viability, T/C [5] 16%
< 31.6 nM: IC50 (second compound 0.0316 µM) | IC50 (second compound 0.1 µM) | IC50 (second compound 0.316 µM) | IC50 (second compound 1 µM) | IC50 (second compound 3.16 µM) | IC50 (second compound 10 µM)

CCC(CC)c1cc(NC2CCC(N)C2)n2nccc2n1 (stereo not drawn) + C#Cc1c(F)ccc2cc(O)cc(-c3ncc4c(N5CC6CCC(C5)N6)nc(OCC56CCCN5CC(F)C6)nc4c3F)c12
< 31.6 nM: IC50 (second compound 0.0316 µM) | IC50 (second compound 0.1 µM) | IC50 (second compound 0.316 µM) | IC50 (second compound 1 µM) | IC50 (second compound 3.16 µM) | IC50 (second compound 10 µM)
inactive: viability, T/C [1] 27.3% | viability, T/C [2] 24.2% | viability, T/C [3] 22.7% | viability, T/C [4] 16% | viability, T/C [7] 10.8% | viability, T/C [8] 12.2%
active: viability, T/C [5] 1.58% | viability, T/C [6] 5.35% | viability, T/C [9] 7.8% | viability, T/C [10] 9.56% | viability, T/C [11] 1.88% | viability, T/C [12] 5.23% | viability, T/C [13] 5.57% | viability, T/C [14] 5.89% | viability, T/C [15] 4.79% | viability, T/C [16] 4.23% | viability, T/C [17] 1.7% | viability, T/C [18] 5.13% | viability, T/C [19] 3.15% | viability, T/C [20] 3.52% | viability, T/C [21] 2.78% | viability, T/C [22] 3.71% | viability, T/C [23] 2.1% | viability, T/C [24] 6.67% | viability, T/C [25] 2.7% | viability, T/C [26] 2.53% | viability, T/C [27] 2.14% | viability, T/C [28] 2.51% | viability, T/C [29] 1.88% | viability, T/C [30] 6.5% | viability, T/C [31] 1.53% | viability, T/C [32] 1.24% | viability, T/C [33] 1.12% | viability, T/C [34] 1.66% | viability, T/C [35] 1.33% | viability, T/C [36] 3.5%

Cc1nc(N2CCC3(CC2)COC(C)C3N)c(CO)nc1Sc1ccnc(N)c1Cl (stereo not drawn) + C#Cc1c(F)ccc2cc(O)cc(-c3ncc4c(N5CC6CCC(C5)N6)nc(OCC56CCCN5CC(F)C6)nc4c3F)c12
active: viability, T/C [2] 5.6% | viability, T/C [3] 3.15% | viability, T/C [4] 1.95% | viability, T/C [5] 1.57% | viability, T/C [6] 0.92% | viability, T/C [7] 5.2% | viability, T/C [8] 3.07% | viability, T/C [9] 1.59% | viability, T/C [10] 0.92% | viability, T/C [11] 0.97% | viability, T/C [12] 0.63% | viability, T/C [13] 2.68% | viability, T/C [14] 1.49% | viability, T/C [15] 0.84% | viability, T/C [16] 0.98% | viability, T/C [17] 0.78% | viability, T/C [18] 0.67% | viability, T/C [19] 1.74% | viability, T/C [20] 1.54% | viability, T/C [21] 1.31% | viability, T/C [22] 0.99% | viability, T/C [23] 0.81% | viability, T/C [24] 0.51% | viability, T/C [25] 1.99% | viability, T/C [26] 1.51% | viability, T/C [27] 1.34% | viability, T/C [28] 0.77% | viability, T/C [29] 0.8% | viability, T/C [30] 0.33% | viability, T/C [31] 1.85% | viability, T/C [32] 0.91% | viability, T/C [33] 0.69% | viability, T/C [34] 0.44% | viability, T/C [35] 0.38% | viability, T/C [36] 0.14%
inactive: viability, T/C [1] 12.6%
< 31.6 nM: IC50 (second compound 0.0316 µM) | IC50 (second compound 0.1 µM) | IC50 (second compound 0.316 µM) | IC50 (second compound 1 µM) | IC50 (second compound 3.16 µM) | IC50 (second compound 10 µM)

NC1c2ccccc2OC12CCN(c1cnc3c(N4CCCc5ncccc54)n[nH]c3n1)CC2 (stereo not drawn) + C#Cc1c(F)ccc2cc(O)cc(-c3ncc4c(N5CC6CCC(C5)N6)nc(OCC56CCCN5CC(F)C6)nc4c3F)c12
active: viability, T/C [1] 2.52% | viability, T/C [2] 1.69% | viability, T/C [3] 1.2% | viability, T/C [4] 0.72% | viability, T/C [5] 0.33% | viability, T/C [6] 0.32% | viability, T/C [7] 1.81% | viability, T/C [8] 1.39% | viability, T/C [9] 0.82% | viability, T/C [10] 0.62% | viability, T/C [11] 0.38% | viability, T/C [12] 0.25% | viability, T/C [13] 1.2% | viability, T/C [14] 0.66% | viability, T/C [15] 0.72% | viability, T/C [16] 0.67% | viability, T/C [17] 0.35% | viability, T/C [18] 0.35% | viability, T/C [19] 1.27% | viability, T/C [20] 1.46% | viability, T/C [21] 0.57% | viability, T/C [22] 0.5% | viability, T/C [23] 0.21% | viability, T/C [24] 0.22% | viability, T/C [25] 0.86% | viability, T/C [26] 1.11% | viability, T/C [27] 0.52% | viability, T/C [28] 0.29% | viability, T/C [29] 0.29% | viability, T/C [30] 0.34% | viability, T/C [31] 0.92% | viability, T/C [32] 0.33% | viability, T/C [33] 0.31% | viability, T/C [34] 0.14% | viability, T/C [35] 0.19% | viability, T/C [36] 0.12%
< 31.6 nM: IC50 (second compound 0.0316 µM) | IC50 (second compound 0.1 µM) | IC50 (second compound 0.316 µM) | IC50 (second compound 1 µM) | IC50 (second compound 3.16 µM) | IC50 (second compound 10 µM)
